According to publication PMC11570452, “MOTS-c modulates skeletal muscle function by directly binding and activating CK2” (iScience, 2024):
Peptide text beside a SMILES is read from it.

Legend:
[1] = target: T1, CK2α (Homo sapiens, UniProt P68400); test: Surface plasmon resonance (Biacore assay), CK2α; assay type: binding; conditions: SPR, peptide immobilized, CK2α flowed
T1 construct: purchased GenScript
From the text: Figure 2 MOTS-c directly binds and activates CK2 in cell-free systems (A–C) Dot blot assays with (A) CK2 complex (contains both CK2α and CK2β subunits) immobilized, MOTS-c flowed over the membrane, and detected by MOTS-c antibody. (B–C) MOTS-c immobilized, CK2 complex flowed over the membrane, and detected by CK2α (B) and CK2β (C) antibodies. (D) CK2α or CK2β immobilized, MOTS-c flowed over the membrane, and detected by MOTS-c antibody. FO, flow over; IB, immunoblotting. (E): Surface plasmon resonance (Biacore assay) of MOTS-c (10 μg/mL) and CK2α (2.5 nM, 5.0 nM, 10 nM, and 20 nM). MOTS-c was immobilized on the sensor chip and CK2α flowed over the sensor chip. KD, dissociation constant. (F) Molecular docking simulation of the binding between MOTS-c and CK2α by using AlphaFold2. (G) CK2 activity assessed by kinase activity assay with/without MOTS-c in cell-free condition. […]
The kinetics of MOTS-c WT/K14Q (GenScript) and CK2α (GenScript)/β (IBL) were assessed by using surface plasmon resonance (Biacore T200, Cytiva). […] Then, since we detected the binding signal only with CK2α, CK2α was flowed (30 μL/min) over the sensor chip at 2.5 nM, 5.0 nM, 10 nM, and 20 nM in running buffer (0.01M HEPES, 0.15 M NaCl, 0.3 mM EDTA, and 0.05% tween). After each concentration of CK2α was assessed, CK2α was removed using 4 mM and 5 mM Sodium Hydroxide for MOTS-c and K14Q MOTS-c, respectively. […]

[2] = test system: skeletal muscle (gastrocnemius) glucose uptake; test: In vivo skeletal muscle 2-deoxyglucose (2DG) uptake; parameters: species or system mouse (C57BL/6J)
Procedure: 2-deoxyglucose (2-DG) uptake experiment: Male C57BL/6J mice at 14–15 weeks of age were received sham injection (injected nothing) for seven days before the experiment to acclimated to the invasive stimulus by the injection. A selective CK2 inhibitor CX-4945 (MCE) was dissolved in 0.9% saline containing 5% DMSO. After 120 min of fasting, mice were intraperitoneally injected with a CK2 inhibitor at 25 mg/kg or vehicle.[45] Two hours later, mice were injected insulin at 0.75 U/kg (MilliporeSigma) and MOTS-c at 7.5 mg/kg (GenScript) or sterilized water. Then 10 min later, 5 μg of 2DG (Sigma-Aldrich) was injected.[46] Mice were euthanized 45 min after 2DG injection and gastrocnemius muscle was collected. The collected samples were stored at −80°C for further analyses. The entire gastrocnemius muscle was used for the analysis to avoid potential bias.
To measure glucose uptake into mouse skeletal muscle, 2-DG uptake measurement kit was used (Cosmo Bio). Gastrocnemius muscle samples were homogenized in 10 mM tris-HCL (pH. 8.1) and then incubated at 95°C for 15 min. Samples were centrifuged for 15 min at 17,800 g (4°C), and the supernatant was diluted in 10 mM tris-HCl.[66] Diluted samples ([…]) were used for further analysis according to the manufacturer’s instructions (Cosmo Bio Co.).

[3] = Plasma MOTS-c levels after MOTS-c administration; assay type: in vivo, mouse (C57BL/6J); conditions: single IP 7.5 mg/kg, young mice, n = 5 per time point
Procedure: Figure 3 MOTS-c modulates CK2 activity in a tissue-specific manner (A) Experimental design of a single MOTS-c administration (7.5 mg/kg) experiment in young mice (n = 5 per time point). (B) Plasma MOTS-c levels after MOTS-c administration. ∗: p < 0.05 versus time 0. (C) Quantification of CK2 activity assessed by western blotting in each tissue shown in ([…]). (E–F) CK2 activity assessed by western blotting with p-CK2 substrate antibody in gastrocnemius muscle (D), epididymal fat (E), and liver (F) after MOTS-c administration. ∗p < 0.05, ∗∗p < 0.01 versus time 0 in same tissue. (G–I) MOTS-c detection following CK2α immunoprecipitation (IP) in gastrocnemius muscle (G), epididymal fat (H), and liver (I) 30 min after MOTS-c administration (7.5 mg/kg). The "-" indicates tissues from non-MOTS-c administered mice, while the "+" indicates tissues from MOTS-c administered mice. (J–K) CK2 activity after 10 min MOTS-c treatment (10 μM) in differentiated skeletal muscle (J) and adipocyte (K). Data are represented as mean ± SEM for (B, C, J, and K).
Acute MOTS-c administration experiment: Male C57BL/6J mice at 10–12 weeks of age were randomly assigned to one of the experimental time points: 0 min, 15 min, 30 min, or 180 min. MOTS-c ([…]) was administered by intraperitoneal injection. At each time point, plasma was collected under anesthesia with isoflurane. […]

T1 sequence (P68400 whole entry): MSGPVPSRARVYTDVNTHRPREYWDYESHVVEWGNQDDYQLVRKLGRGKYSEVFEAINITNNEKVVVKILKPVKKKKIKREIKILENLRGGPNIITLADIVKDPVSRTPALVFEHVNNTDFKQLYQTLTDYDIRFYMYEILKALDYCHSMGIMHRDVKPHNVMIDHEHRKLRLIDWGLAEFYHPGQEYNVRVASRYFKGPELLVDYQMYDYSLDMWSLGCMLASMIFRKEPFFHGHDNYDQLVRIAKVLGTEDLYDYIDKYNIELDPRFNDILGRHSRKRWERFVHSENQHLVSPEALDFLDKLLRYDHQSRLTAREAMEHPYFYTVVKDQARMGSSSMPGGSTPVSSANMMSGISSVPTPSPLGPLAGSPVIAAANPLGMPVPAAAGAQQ

Reciprocal of KD [1] [nM⁻¹]	MOTS-c levels in plasma [3]	SMILES	Muscle glucose uptake, CK2 inhibitor co-administered with MOTS-c ([2]; CX-4945 25 mg/kg + MOTS-c 7.5 mg/kg)	Muscle glucose uptake with CK2 inhibitor alone ([2]; CX-4945 25 mg/kg IP 2 h before insulin 0.75 U/kg, p = 0.053, n = 10-11 per group)
0.062	–	CC[C@H](C)[C@H](NC(=O)[C@H](Cc1ccc(O)cc1)NC(=O)CNC(=O)[C@H](CCSC)NC(=O)[C@H](CCC(=O)O)NC(=O)[C@H](CCC(N)=O)NC(=O)[C@H](Cc1c[nH]c2ccccc12)NC(=O)[C@H](CCCNC(=N)N)NC(=O)[C@@H](N)CCSC)C(=O)N[C@@H](Cc1ccccc1)C(=O)N[C@@H](Cc1ccc(O)cc1)C(=O)N1CCC[C@H]1C(=O)N[C@@H](CCCNC(=N)N)C(=O)N[C@@H](CCC(N)=O)C(=O)N[C@@H](CC(C)C)C(=O)N[C@@H](CCCNC(=N)N)C(=O)O [K14Q MOTS-c] (H-MRWQEMGYIFYPRQLR-OH)	–	–
–	–	O=C(O)c1ccc2c(c1)nc(Nc1cccc(Cl)c1)c1ccncc12 [CX-4945]	prevented the increase in muscle glucose uptake by MOTS-c	decreased muscle glucose uptake (p = 0.053)
1.0	increased MOTS-c levels in plasma	CC[C@H](C)[C@H](NC(=O)[C@H](Cc1ccc(O)cc1)NC(=O)CNC(=O)[C@H](CCSC)NC(=O)[C@H](CCC(=O)O)NC(=O)[C@H](CCC(N)=O)NC(=O)[C@H](Cc1c[nH]c2ccccc12)NC(=O)[C@H](CCCNC(=N)N)NC(=O)[C@@H](N)CCSC)C(=O)N[C@@H](Cc1ccccc1)C(=O)N[C@@H](Cc1ccc(O)cc1)C(=O)N1CCC[C@H]1C(=O)N[C@@H](CCCNC(=N)N)C(=O)N[C@@H](CCCCN)C(=O)N[C@@H](CC(C)C)C(=O)N[C@@H](CCCNC(=N)N)C(=O)O [MOTS-c] (H-MRWQEMGYIFYPRKLR-OH)	–	–
